{"source": "patent US20060223884A1", "about": "“Compounds and compositions for use in the prevention and treatment of obesity and related syndromes” (priority 2005, published 2006)", "key": {"[1]": {"settings": "DIO mice", "excerpt": "The objective of this study was to evaluate the effect of chronic administration of 4-hydroxyisoleucine (4-OH, compound 14a) and Rosiglitazone, administered alone or in combination, on food consumption and body weight gain of DIO-mice. Both parameters were monitored for 1 week prior to the commencement of treatment, then for the 28 days of treatment and for an additional 7 days post-treatment.\nA total of 72 animals were used in the study. The animals were distributed into 6 groups (5 treated, 1 control group, all on high fat diet). Each group was composed of 12 animals. The mice were randomized according to body weight and basal glycemia values following a 5±0.5 hour fasting period.\nFor the four weeks of treatment, the test articles were dissolved in reverse osmosis water. 4-Hydroxyisoleucine was aliquoted and kept at 4° C. (administration to groups 2, 3, and 6), while Rosiglitazone was freshly prepared daily and kept at 4° C. between the AM and PM administration to groups 4, 5, and 6. Control animals received reverse osmosis water twice daily (group 1). Mice from groups 2 and 3 were treated twice daily with 4-OH at 50 and 100 mg/kg, respectively. Animals from groups 4 and 5 received 1.5 and 5 mg/kg of Rosiglitazone, respectively. […] All groups were treated by oral gavage. Treatment commenced on Day 0 and ended on Day 28 (FIGS. 17A and 17C).\nFood consumption was measured and averaged on a weekly basis beginning one week before the start of treatment as shown in FIGS. 17B and 17D as week −1. Similarly, food consumption was monitored for one week after treatment was stopped and is shown as week 5 in FIGS. 17B and 17D. In FIG. 17B, the food consumption over time for various treatment groups is illustrated by the bar graph."}, "[2]": {"test": "Weight gain and epididymal fat of DIO-C57Bl/6 mice, 4-hydroxyisoleucine and Exendin-4 alone or in combination (Example 5)", "assay_type": "in vivo, C57BI/6 mice", "settings": "s.c., 21 days", "experimental": "(§1) Glycemic response was monitored by an Oral Glucose Tolerance Test (OGTT) performed on days 0, 7, 14, and 21 of treatment.\n(§2) A total of 56 animals were used in the study. The animals were distributed into 7 groups (5 treated, 1 normal diet control, and 1 high fat diet control group). Each group was composed of 8 animals. […] For the three weeks of treatment, the test agents were dissolved in sterile saline for injection (USP). 4-Hydroxyisoleucine was kept at 4° C. (administration to groups 3, 4, and 7) while a frozen aliquot of Exendin-4 was thawed each dosing day for administration to groups 5, 6, and 7. Control animals received sterile saline, twice daily (groups 1 and 2). […] Animals from groups 5 and 6 received sterile saline as the AM treatment, while the PM treatment consisted of 0.05 and 0.01 mg/kg of Exendin-4, respectively. For Group 7, the AM treatment consisted of 50 mg/kg 4-OH only, while the PM treatment consisted of 0.01 mg/kg of Exendin-4+50 mg/kg of 4-OH. All groups were treated by subcutaneous injection."}, "[3]": {"test": "Oral Glucose Tolerance Test (OGTT) in DIO mice, 4-hydroxyisoleucine and Exendin-4 alone or in combination (Example 5)", "assay_type": "in vivo, C57BI/6 mice", "settings": "single agent, 4-OH 50 mg/kg or Exendin-4 0.01 mg/kg, after 7, 14 and 21 days of treatment", "experimental": "as §1, §2\nOn days 0, 7, 14, and 21, animals fasted for approximately 5 hours were challenged with an Oral Glucose Tolerance Test (OGTT) at 5 hours post-AM test agent administration. Whole blood glucose levels were monitored using a hand-held glucometer prior to OGTT and for up to 2 hours post-glucose challenge."}, "[4]": {"test": "Body weight of DIO mice, 4-hydroxyisoleucine and metformin alone and in combination (Example 6)", "assay_type": "in vivo, C57BU6 mice", "experimental": "C57BU6 mice were received at 7-8 weeks of age and fed a high fat diet (60% of calories from fat) for 8 weeks. Fasted glycemia was checked and animals with readings between 200 and 220 mg/dL were included in the study. The animals were randomized based on their body weights and glycemia values into control and treatment groups (n=8). […] The control group received vehicle (water) alone. The animals were treated for 21 days. Body weight of the mice was measured on the first day of treatment and on days 3, 7, 10, 14, 17, and 21. All data are expressed as mean±SEM."}, "[5]": {"test": "Body weight gain in C57BU6 mice shifted to a high fat diet, analogs and isomers, 3 days (Example 9)", "assay_type": "in vivo", "settings": "C57BU6 mice on high fat diet, 100 mg/kg twice daily oral gavage", "experimental": "C57BU6 mice were received at 6-7 weeks of age and fed a standard commercial chow for 1 week (acclimation period). The animals were randomized based on their body weight values, into control and treatment groups (n=6). Then, animals were shifted to a high fat diet (60% of calories from fat) and treated twice daily by oral gavage with 4-hydroxyisoleucine (4-OH, compound 14a) or different analogs and isomers of 4-OH at the dose of 100 mg per kg of body weight for 3 days. The control group (Control HFD) received vehicle (water) alone and a group was kept under standard chow (Control Lean). Body weight of the mice was recorded daily. Two different experiments were run and the effect on body weight gain of selected analogs and isomers according to the invention is presented in FIG. 22A (Experiment 1) and FIG. 22B (Experiment 2)."}, "[6]": {"test": "Reversal of weight gain in obese wistar rats on HFHS diet (Example 11)", "assay_type": "in vivo", "settings": "100 mg/kg twice daily oral", "excerpt": "The aim of this study was to evaluate the effect of chronic administration of 4-hydroxyisoleucine (4-OH, Compound 14a) on food consumption, tissue weight, and body weight gain of wistar obese rats.\nA total of 30 animals were used in the study. The animals were acclimated for 1 week and fed standard chow. The animals were randomized into 3 groups of 10 animals each. Two groups were fed a high fat, high sucrose diet (HFHS), and 1 untreated control group was fed standard chow over a 28 day period. Animals were housed separately and food consumption was monitored daily.\nIn the following period of 28 days, the feeding regimen remained the same for the 3 groups; however, 1 group fed HFHS was treated with twice daily oral administration of 4-OH at 100 mg/kg per dose. For the 28 days of treatment, 4-OH was dissolved in reverse osmosis water, aliquoted, and kept at 4° C. Untreated animals received water twice daily."}, "[7]": {"settings": "cited from earlier work"}, "[8]": {"settings": "4-OH 50 or 100 mg/kg twice daily"}, "[9]": {"settings": "obese wistar rats (28 days HFHS before treatment)"}}, "note": "Read-outs that look alike come from different tables or passages of the source."}
{"compound": "C[C@@H]([C@H](C)O)[C@H](N)C(=O)O", "note": "[compound 14a, (2S,3R,4S)-4-Hydroxyisoleucine]", "values": [{"measurement": "weight gain induced by Rosiglitazone", "setting": "[1]; 4-OH 50 mg/kg co-administered with Rosiglitazone 1.5 mg/kg", "value": "able to modulate the weight gain induced by Rosiglitazone"}, {"measurement": "food consumption (FIG. 17D)", "setting": "[1]; 4-OH 50 mg/kg, Rosiglitazone 1.5 mg/kg, or the two co-administered", "value": "reduction in food consumption during the first week, but not after"}, {"measurement": "weight gain", "setting": "[1]; 4-OH 100 mg/kg twice daily oral, 28 days", "value": "Moderation of weight gain"}, {"measurement": "food consumption, first week of treatment (FIG. 17B)", "setting": "[1]; [8]", "value": "decreased"}, {"measurement": "food consumption, remainder of the treatment phase (FIG. 17B)", "setting": "[1]; [8]", "value": "returned to pre-treatment levels"}, {"measurement": "body weight gain", "setting": "[2]; 4-OH 50 mg/kg twice daily, Exendin-4 0.01 mg/kg (PM), alone or in combination", "value": "decrease in body weight gain"}, {"measurement": "weight of epididymal fat", "setting": "[2]; 4-OH 100 mg/kg, Exendin-4 0.01 mg/kg, combination 4-OH 50 mg/kg + Exendin-4 0.01 mg/kg", "value": "reduction of the weight of epididymal fat"}, {"measurement": "glycemic levels following OGTT challenge", "setting": "[3]", "value": "consistently effective at reducing glycemic levels"}, {"measurement": "body weight as compared to vehicle-treated mice", "setting": "[4]; DIO mice, 100 mg/kg twice daily oral, 21 days, only 4-OH significant (p<0.01 4-OH, p=0.27 metformin)", "value": "reduction of their body weight"}, {"measurement": "body weight compared to control DIO mice, given alone", "setting": "[4]; DIO mice, 4-OH 50 mg/kg or metformin 25 mg/kg twice daily oral, 21 days", "value": "no significant effect on body weight"}, {"measurement": "efficacy in reducing body weight relative to metformin", "setting": "[4]; DIO mouse model, conclusion of the study", "value": "as effective as mefformin"}, {"measurement": "body weight as compared to pre-treatment values (FIG. 22B, one experiment)", "setting": "[5]", "value": "reduced body weight of the mice as compared to pre-treatment values"}, {"measurement": "body weight gain induced by the high fat diet", "setting": "[5]", "value": "reduced body weight gain induced by the high fat diet"}, {"measurement": "epididymal and peri-renal adipose tissue", "setting": "[6]; [9]", "value": "reduction of epididymal and pen-renal adipose tissue"}, {"measurement": "muscle, brown fat, and organ weight", "setting": "[6]; [9]", "value": "not affected"}, {"measurement": "tolerability of treatment", "setting": "[6]; [9]", "value": "well tolerated"}, {"measurement": "weight gain", "setting": "[6]; [9]", "value": "Moderation of weight gain"}, {"measurement": "food consumption", "setting": "[6]; obese wistar rats, 28 days, could not account for the differences in adiposity", "value": "reduction in food consumption"}, {"measurement": "insulinotropic and insulin sensitizing activities", "setting": "[7]; Broca et al. 1999, 2000, 2004, WO 97/32577, WO 01/15689", "value": "insulinotropic and insulin sensitizing activities"}, {"measurement": "antidyslipidemic activities", "setting": "[7]; Narender et al. 2006", "value": "antidyslipidemic activities"}]}
